Consider three compounds from patent publication US20260014092A1, “EXTRACELLULAR VESICLES FROM MICROALGAE, THEIR USE FOR VACCINES AND FOR IMMUNOMODULATION” (AGS THERAPEUTICS SAS, priority 2023, published 2026).

For data set [1] the following is noted: cited from earlier work.
In data set [2] the test system is DSS-induced acute experimental colitis. The data set can be described thus: DSS-induced acute colitis (IBD model): Disease Activity Index (DAI). On the set-up: scale not given here. In kind it is in vivo, C57BL/6 female mice. The settings on record: i.r. As to the method:
In mice, the disease can be induced by the treatment with Dextran Sodium Sulfate (DSS) to create a disease model for the evaluation of experimental therapies. Thus, the treatment of mice suffering from DSS-induced acute experimental colitis is a widely used animal model for the evaluation of therapies against the IBD disease. In our case, acute colitis was induced in mice by DSS 3% in drinking water for eight days. […] All handling of animals was conducted carefully to reduce stress to the minimum. All the experiments were performed in compliance with the guidelines of the French Ministry of Agriculture for experiments with laboratory animals.
Animals were randomized before treatment group's allocation based on body weight. The disease was induced by administration of DSS in drinking water (3%, w/v, MW: 40000, TdB Consultancy AB) in C57BL/6 female mice at 9 weeks of age. Mice were administered with test compounds either at D3 and D6 (M1, M3 and M5 intrarectal), or daily from D3 to D6 (M2 and M4, per os). Experimental groups were as follows: seven animals per group; a total of 49 mice.
Mice were euthanized at D8; samples were harvested to determine the extent of intestinal inflammation using various quantitative and semi quantitative methods including body weight evolution, clinical score (Disease Activity index; DAI, Table 13, below), large intestine measurement, cytokine analysis in colon and/or ileum tissue (TNFα, TGFβ, IFNα, IFNγ, IL-6 and IL-17A) and intestinal and colon histopathology for inflammation analysis, as follows and as summarized in Table 14, below.
In-Life Samples (all groups) • Bodyweight (daily) • Disease Activity Index (DAI) (diarrhea and blood in stool)
The life samples were recovered every day: i. body weight, ii. diarrhea, and iii. blood in stool and used to determine the disease activity index (DAI). The results are summarized in Table 33, for each animal in each group for seven consecutive days.

Where “and” joins values, the source holds several entries; their conditions need not be identical. Identical values can stand only once. In the oligonucleotide strings, read from the 5' end, every base follows the letter of its sugar. An asterisk marks phosphorothioate; unmarked linkages are phosphodiester. Other units and linkages are bracketed, terminal groups are in braces. A string of capitals states the bases alone. d = 2'-deoxy (DNA)

Turning to `CCCCCCCCCCCCCCCCCCCCCC[N+]1=C(/C=C/C=C2/N(CCCCCCCCCCCCCC)c3ccccc3C2(C)C)C(C)(C)c2ccccc21.[I-]` [PKH26], the in vivo half-life entry in data set [1] is listed as “over 100 days”.

In the case of “cobitolimob (DNA GGAACAGTTCGTCCATGGC; listed as DNA, chemistry not given here) [ODNX]”, the “Cumulative score (DAI), Mean” value in data set [2] (D 0, group mean, D 3 and D 6, 100 μg/mouse) was 0.00; in data set [2] (D 1, group mean, D 3 and D 6, 100 μg/mouse), 0.00; in data set [2] (D 2, group mean, D 3 and D 6, 100 μg/mouse), 0.14; in data set [2] (D 3, group mean, D 3 and D 6, 100 μg/mouse), 0.57; in data set [2] (D 4, group mean, D 3 and D 6, 100 μg/mouse), 2.43; in data set [2] (D 5, group mean, D 3 and D 6, 100 μg/mouse) it was 4.14. Moreover, the “Cumulative score (DAI), Mean” value is 5.71 in data set [2] (D 6, group mean, D 3 and D 6, 100 μg/mouse); 7.43 in data set [2] (D 7, group mean, D 3 and D 6, 100 μg/mouse). Further, the “Cumulative score (DAI)” value was 0 in data set [2] (D 0, individual mice, D 3 and D 6, 100 μg/mouse); 0 in data set [2] (D 1, individual mice, D 3 and D 6, 100 μg/mouse); 0 (6×) and 1 in data set [2] (D 2, individual mice, D 3 and D 6, 100 μg/mouse); 0 (5×) and 3 and 1 in data set [2] (D 3, individual mice, D 3 and D 6, 100 μg/mouse); 5 and 3 (2×) and 0 (2×) and 2 and 4 in data set [2] (D 4, individual mice, D 3 and D 6, 100 μg/mouse); 4 (3×) and 5 (2×) and 1 and 6 in data set [2] (D 5, individual mice, D 3 and D 6, 100 μg/mouse). The “Cumulative score (DAI)” value was 7 and 6 and 4 and 5 (2×) and 3 and 10 in data set [2] (D 6, individual mice, D 3 and D 6, 100 μg/mouse); 10 (2×) and 7 and 5 and 6 (2×) and 8 in data set [2] (D 7, individual mice, D 3 and D 6, 100 μg/mouse).

Turning to “ODN 1585 (DNA dG*dG*dGdGdTdCdAdAdCdGdTdTdGdAdG*dG*dG*dG*dG*dG) [ODNA]”, the “Cumulative score (DAI), Mean” value came out at 0.00 in data set [2] (D 0, group mean, D 3 and D 6, 50 μg/mouse); 0.14 in data set [2] (D 1, group mean, D 3 and D 6, 50 μg/mouse); 0.14 in data set [2] (D 2, group mean, D 3 and D 6, 50 μg/mouse); 0.14 in data set [2] (D 3, group mean, D 3 and D 6, 50 μg/mouse); 1.71 in data set [2] (D 4, group mean, D 3 and D 6, 50 μg/mouse); 4.14 in data set [2] (D 5, group mean, D 3 and D 6, 50 μg/mouse). For the same compound, the “Cumulative score (DAI), Mean” value in data set [2] (D 6, group mean, D 3 and D 6, 50 μg/mouse) is reported as 6.14; in data set [2] (D 7, group mean, D 3 and D 6, 50 μg/mouse), 6.71. In addition, the “Cumulative score (DAI)” value in data set [2] (D 0, individual mice, D 3 and D 6, 50 μg/mouse) is 0; in data set [2] (D 1, individual mice, D 3 and D 6, 50 μg/mouse) it was 0 (6×) and 1; in data set [2] (D 2, individual mice, D 3 and D 6, 50 μg/mouse), 0 (6×) and 1; in data set [2] (D 3, individual mice, D 3 and D 6, 50 μg/mouse), 0 (6×) and 1; in data set [2] (D 4, individual mice, D 3 and D 6, 50 μg/mouse), 2 and 5 and 3 and 1 (2×) and 0 (2×); in data set [2] (D 5, individual mice, D 3 and D 6, 50 μg/mouse), 2 and 8 and 4 (2×) and 3 (2×) and 5. Moreover, the “Cumulative score (DAI)” value in data set [2] (D 6, individual mice, D 3 and D 6, 50 μg/mouse) was 7 (4×) and 6 (2×) and 3; in data set [2] (D 7, individual mice, D 3 and D 6, 50 μg/mouse) it was 8 (3×) and 7 (2×) and 6 and 3.
